Test [1] has as its system Mus musculus. In words: Antidepressant activity in mouse assessed as decrease in immobility time at 10 mg/kg, ip by forced swimming test (reference value: 147.8 +/- 10.2 sec). In kind it is functional.
Test [2] has as its system Mus musculus. In words: Anti-inflammatory activity against dimethylbenzene-induced ear edema mouse model assessed as inhibition of ear edema at 10 mg/kg, ip measured after 60 mins (reference value: 6.93 +/- 1.05 mg). In kind it is functional. Conditions: 1 h.
The subject of test [3] is Mus musculus. In words: Analgesic activity in mouse assessed as inhibition of acetic acid-induced writhing at 10 mg/kg, ip measured after 60 mins relative to control. In kind it is functional. Also noted: scale not given: the % may be the effect or the level left. Particulars: 1 h.
Test [4] has as its system Mus musculus. In words: Anti-inflammatory activity against dimethylbenzene-induced ear edema mouse model assessed as inhibition of ear edema at 10 mg/kg, ip measured after 60 mins relative to control. In kind it is functional. Also on record: scale not given: the % may be the effect or the level left. Particulars: 1 h.
The target of test [5] is 5-HT3 receptor (Cavia porcellus). Nature of the test: Antagonist activity against 5-H3R in guinea pig ileum preincubated for 10 mins followed by 2-methyl 5-HT addition. Conditions: read-out: pA2 (converted).
In test [6] the test system is Mus musculus. Nature of the test: Antidepressant activity in mouse assessed as decrease in immobility time at 10 mg/kg, ip by forced swimming test relative to control. In kind it is functional. Also noted: scale not given: the % may be the effect or the level left.

With `Cc1cc2cc(CC3NC(=O)C(C)NC3=O)[nH]c2cc1C` (stereo not given), the Time with Mus musculus [1] stood at 87.2 s. For the same molecule, the figures for the Activity in the test with Mus musculus [2] and with Mus musculus [3] were 2.83 mg and 54.3%, respectively.
In the case of `Cc1ccc2cc(CC3NC(=O)C(C)NC3=O)[nH]c2c1` (stereo not given), the Time with Mus musculus [1] came out at 58.2 s. For the same molecule, the values for the Activity with Mus musculus [2], in the test with Mus musculus [3] and with Mus musculus [4] were 1.12 mg, 79.3% and 83.3%, respectively.
For the molecule `CC1NC(=O)C(Cc2cc3ccc(F)cc3[nH]2)NC1=O` (stereo not given), the Time in the test on Mus musculus [1] was determined as 52.8 s. For the same molecule, the Activity with Mus musculus [2] is reported as 0.69 mg; in the test on Mus musculus [3], 77.8%; with Mus musculus [4] it was 90%.
As for `COc1cc2cc(CC3NC(=O)C(C)NC3=O)[nH]c2cc1OC` (stereo not given), in the test with Mus musculus [1], the Time is on record as 98 s. Moreover, the results for the Activity in the test on Mus musculus [2] and in the test with Mus musculus [3] were 3.03 mg and 58.9%, respectively.
On to `CC1NC(=O)C(Cc2cc3cc(Cl)ccc3[nH]2)NC1=O` (stereo not given), for which the Time in the test on Mus musculus [1] was 64.8 s. Further, the Activity with Mus musculus [2] came to 0.7 mg; with Mus musculus [3], 87.5%; in the test on Mus musculus [4], 89.8%.
For the molecule `CC1NC(=O)C(Cc2cc3ccc(Cl)cc3[nH]2)NC1=O` (stereo not given), in the test with Mus musculus [1], the Time is listed as 66.8 s. For the same molecule, the Activity in the test on Mus musculus [2] was 0.89 mg; in the test on Mus musculus [3], 65.4%; in the test on Mus musculus [4], 87.2%.
Consider `CC1NC(=O)C(Cc2cc3cc(Br)ccc3[nH]2)NC1=O` (stereo not given), for which the Time in the test on Mus musculus [1] came to 79.4 s. The Activity is 1.42 mg with Mus musculus [2] and 70.2% with Mus musculus [3].
On the same counts, the results for `CC1NC(=O)C(Cc2cc3ccc(Br)cc3[nH]2)NC1=O` (stereo not given) are 76.8 s, 1.72 mg and 62.8%.
For `CC1NC(=O)C(Cc2cc3cc(F)ccc3[nH]2)NC1=O` (stereo not given), in the test with Mus musculus [1], the Time worked out at 53.1 s. Moreover, the values for the Activity with Mus musculus [2], with Mus musculus [3] and with Mus musculus [4] were 0.61 mg, 90.2% and 91.2%, respectively.
For the molecule `CC1NC(=O)C(Cc2cc3cc([N+](=O)[O-])ccc3[nH]2)NC1=O` (stereo not given), the Time with Mus musculus [1] came out at 88.6 s. In addition, the Activity with Mus musculus [2] came out at 1.61 mg; in the test on Mus musculus [3], 66.8%.
`CC1NC(=O)C(Cc2cc3cc(N(C)C)ccc3[nH]2)NC1=O` (stereo not given): the Time in the test on Mus musculus [1] was 91.3 s. Besides, the Activity is recorded as 2.02 mg with Mus musculus [2] and 50.9% in the test with Mus musculus [3].
On to `CC1NC(=O)C(Cc2cc3ccccc3[nH]2)NC1=O` (stereo not given), for which, in the test on Mus musculus [1], the Time is given as 93.3 s. Also, the Activity with Mus musculus [2] amounted to 2.4 mg; with Mus musculus [3], 51.6%.
As for `Cc1ccccc1N1CCN(C(=O)C2Cc3ccccc3N2C)CC1` (stereo not given), the Kb in test [5] was 31.6 nM.
Take `CC1NC(=O)C(Cc2cc3cc(C(F)(F)F)ccc3[nH]2)NC1=O` (stereo not given): in the test on Mus musculus [1], the Time is 44 s. Moreover, the Activity in the test with Mus musculus [6] is given as 70.2%; with Mus musculus [2] it was 0.45 mg; in the test on Mus musculus [3] it was 88.9%; with Mus musculus [4] it was 93.5%.
With `COc1ccc2cc(CC3NC(=O)C(C)NC3=O)[nH]c2c1` (stereo not given), the Time with Mus musculus [1] is given as 77.2 s. The Activity with Mus musculus [2] was 1.5 mg; with Mus musculus [3] it was 65%.
For `CC1NC(=O)C(Cc2cc3ccc(N(C)C)cc3[nH]2)NC1=O` (stereo not given), the Time with Mus musculus [1] was found to be 95.1 s. Also, the Activity came out at 2.47 mg in the test on Mus musculus [2] and 60.1% in the test with Mus musculus [3].
`CC1NC(=O)C(Cc2cc3cc(Cl)c(Cl)cc3[nH]2)NC1=O` (stereo not given): in the test with Mus musculus [1], the Time is 42.5 s. For the same molecule, the Activity is 71.2% with Mus musculus [6], 0.79 mg in the test with Mus musculus [2], 82.5% with Mus musculus [3] and 87.2% in the test with Mus musculus [4].
On to `COc1ccc2[nH]c(CC3NC(=O)C(C)NC3=O)cc2c1` (stereo not given), for which the Time in the test with Mus musculus [1] came out at 67.3 s. In addition, the Activity in the test on Mus musculus [2] came to 1.41 mg; with Mus musculus [3] it was 53.2%.
For `Cc1ccc2[nH]c(CC3NC(=O)C(C)NC3=O)cc2c1` (stereo not given), the Time with Mus musculus [1] is recorded as 53.5 s. Also, the figures for the Activity in the test with Mus musculus [2], with Mus musculus [3] and in the test with Mus musculus [4] were 1.04 mg, 55.2% and 85%, respectively.
For `CNCCC(Oc1ccc(C(F)(F)F)cc1)c1ccccc1` (stereo not given) [FLUOXETINE], in the test with Mus musculus [1], the Time came out at 47.4 s. Further, the Activity in the test with Mus musculus [6] is 67.9%.
In the case of `COc1ccc2c(c1)c(CC(=O)O)c(C)n2C(=O)c1ccc(Cl)cc1` [INDOMETHACIN], the Activity in the test on Mus musculus [2] worked out at 1.05 mg; in the test on Mus musculus [3], 88.7%; in the test with Mus musculus [4], 84.8%.

The values are drawn from ChEMBL document CHEMBL4699621, “Novel piperazine-2,5-dione analogs bearing 1H-indole: Synthesis and biological effects” (Bioorg Med Chem Lett, 2020).
